Reference: US11207312B2, “Metallo-beta-lactamase inhibitors and methods of use thereof” (priority 2017, dated 2021)
pIC50: −log10 of the molar value. Values after ≈ are worked out from the molar mass of the structure shown.

Legend:
MB5890 (OprD+, efflux-) = test: microbe, parasite or virus in culture; type: cell-based, Pseudomonas aeruginosa; details: Pseudomonas aeruginosa
From the text: (§1) The strain background is Pseudomonas aeruginosa PAO1. A wild-type (M135919) and an isogenic strain in which multiple efflux pumps have been disrupted genetically were used. The MBL IMP-1, obtained from a clinical isolate was introduced into the strain pair by the following process:
(§2) The plasmid DNA was transformed into parental MB5919 (oprD+, efflux+, inducible AmpC) and MB5890 (oprD+, efflux−, inducible AmpC) isogenic strains by electroporation.
(§3) Minimum inhibitory concentrations of sentinel antibiotics were performed to quality control the new strains.

MB5919 (OprD+, efflux+) = test: microbe, parasite or virus in culture; type: cell-based, Pseudomonas aeruginosa; details: Pseudomonas aeruginosa
From the text: as §1, §2, §3

[1] = test system: MB9798 (efflux+ MB5919 Trans IMP1 plasmid); test: microbe, parasite or virus in culture; type: cell-based, Pseudomonas aeruginosa; details: Pseudomonas aeruginosa
From the text: as §1, §2, §3

[2] = test system: MB9799 (efflux- MB5890 Trans IMP1 plasmid); test: microbe, parasite or virus in culture; type: cell-based, Pseudomonas aeruginosa; details: Pseudomonas aeruginosa
From the text: as §1, §2, §3

[3] = test system: MB9861 (Efflux+ MB5919 Trans pFlp-Vim1 plasmid); test: microbe, parasite or virus in culture; type: cell-based, Pseudomonas aeruginosa; details: Pseudomonas aeruginosa
[4] = test system: MB9862 (efflux- MB5890 trans pFlp-Vim1); test: microbe, parasite or virus in culture; type: cell-based, Pseudomonas aeruginosa; details: Pseudomonas aeruginosa
[5] = test system: efflux+ MB5919 Trans pFlp-Vim2 plasmid; test: microbe, parasite or virus in culture; type: cell-based, Pseudomonas aeruginosa; details: Pseudomonas aeruginosa
[6] = test system: efflux- MB5890 Trans pFlp-Vim2 plasmid; test: microbe, parasite or virus in culture; type: cell-based, Pseudomonas aeruginosa; details: Pseudomonas aeruginosa
NDM-1 = NDM-1 (Klebsiella pneumoniae, UniProt C7C422); test: biochemical; type: biochemical; details: CCF2-FA fluorescence assay, 2 hours at 25° C.
Procedure, shortened: (§4)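 Metallo-β-lactamase activity read by fluorescence against CCF2-FA (1.25 μM final) in 100 mM KH2PO4 pH 7 with 0.005% Tween-20 and 10 μM ZnSO4; enzyme final at 1 pM NDM-1, 2 pM IMP-1 or 30 pM VIM-1. Inhibitor at 20 to 0.00063 μM, 2 h at 25° C; IC50 by 4-parameter fit.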

IMP-1 = IMP-1 (Serratia marcescens, UniProt P52699); test: biochemical; details: CCF2-FA fluorescence assay, 2 hours at 25° C.; read-out: IMP1 IC50
Procedure, shortened: as §4

VIM-1 = VIM-1 (Pseudomonas aeruginosa (strain ATCC 15692 / DSM 22644 / CIP 104116 / JCM 14847 / LMG 12228 / 1C / PRS 101 / PAO1), UniProt A0A0F7KYQ8); test: biochemical; details: CCF2-FA fluorescence assay, 2 hours at 25° C.; read-out: VIM1 IC50
Procedure, shortened: as §4

VIM-2 = VIM-2 (Escherichia coli, UniProt Q5U7L7); test: biochemical; details: CCF2-FA fluorescence assay; read-out: VIM2 IC50
[7] = test system: Escherichia coli expressing NDM-1 (CLB30016); type: cell-based; details: with imipenem 1 μg/ml; 95% inhibition of bacterial growth
Procedure, shortened: (§5)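 Clinical MBL-producing strains were grown overnight at 35 °C on blood agar, suspended in saline, diluted 1:100 into 1.1× CAMHB and exposed to test compound with imipenem at 1 μg/ml. After 22–24 h at 35 °C, absorbance gave MITC95: lowest compound concentration inhibiting 95% of growth.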

[8] = test system: Klebsiella pneumoniae expressing VIM-1 (IHMA599644); type: cell-based; details: with imipenem 1 μg/ml; 95% inhibition of bacterial growth
Procedure, shortened: as §5

[9] = test system: Serratia marcescens expressing IMP-1 (CL5741); type: cell-based; details: with imipenem 1 μg/ml; 95% inhibition of bacterial growth
Procedure, shortened: as §5

[10] = test system: P. aeruginosa MB9798 (efflux+, IMP-1 plasmid); details: for MB9798 MITC95 P. aeruginosa uM Efflux WT: efflux + (MB9798) strain, imipenem at 2 μg/mL, in the presence of a class A, C, D serine β-lactamase inhibitor closely related to relebactam; for Efflux ratio: fold difference between efflux+ (MB9798) and efflux− (MB9799) strains
Procedure, shortened: (§6)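 Isogenic P. aeruginosa PAO1 strains (efflux+ and multiple-efflux-pump-disrupted) carrying plasmid IMP-1, with inducible AmpC, tested by broth microdilution. Imipenem and/or ceftazidime fixed, usually at CLSI breakpoint, plus fixed class A/C β-lactamase inhibitor; titrated MBL inhibitor concentration restoring susceptibility recorded and compared between strains as efflux fold difference.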

[11] = test system: P. aeruginosa MB9799 (efflux-, IMP-1 plasmid); type: cell-based, Pseudomonas aeruginosa; details: efflux − (MB9799) strain; imipenem at 2 μg/mL; in the presence of a class A, C, D serine β-lactamase inhibitor closely related to relebactam
Procedure, shortened: as §6

Chain of NDM-1 (C7C422 whole entry, looked up, species assumed): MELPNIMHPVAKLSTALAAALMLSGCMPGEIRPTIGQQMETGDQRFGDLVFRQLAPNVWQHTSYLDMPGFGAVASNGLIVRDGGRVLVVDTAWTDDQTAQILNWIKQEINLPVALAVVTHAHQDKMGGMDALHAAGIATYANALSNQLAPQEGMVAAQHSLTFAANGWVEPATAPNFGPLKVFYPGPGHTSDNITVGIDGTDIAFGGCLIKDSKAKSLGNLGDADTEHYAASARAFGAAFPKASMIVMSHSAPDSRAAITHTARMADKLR
Chain of IMP-1 (P52699 whole entry, looked up, species assumed): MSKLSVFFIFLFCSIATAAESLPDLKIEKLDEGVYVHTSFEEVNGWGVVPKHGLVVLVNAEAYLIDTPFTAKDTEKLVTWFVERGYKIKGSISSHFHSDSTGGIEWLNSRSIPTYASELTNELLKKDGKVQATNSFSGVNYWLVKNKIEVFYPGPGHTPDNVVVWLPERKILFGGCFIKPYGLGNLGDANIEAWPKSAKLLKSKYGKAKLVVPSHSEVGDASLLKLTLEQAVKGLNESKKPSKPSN

SMILES	MIC (MB5890 (OprD+, efflux-)) [µg/mL]	MIC (MB5919 (OprD+, efflux+)) [µg/mL]	MIC [1] [µg/mL]	MIC [2] [µg/mL]	MIC [3] [µg/mL]	MIC [4] [µg/mL]	MIC [5] [µg/mL]	MIC [6] [µg/mL]	pIC50 (NDM-1)	pIC50 (IMP-1)	pIC50 (VIM-1)	pIC50 (VIM-2)	CLB30016 E. coli MITC95 NDM [7] [µM]	IHMA599644 K. pneumoniae MITC95 VIM [8] [µM]	CL5741 S. marcescens MITC95 IMP [9] [µM]	MB9798 MITC95 P. aeruginosa uM Efflux WT [10] [µM]	Efflux ratio [10]	MB9799 MITC95 P. aeruginosa uM Efflux Mutant [11] [µM]
CC[C@H]1OC(=O)[C@H](C)[C@@H](O[C@H]2C[C@@](C)(OC)[C@@H](O)[C@H](C)O2)[C@H](C)[C@@H](O[C@@H]2O[C@H](C)C[C@H](N(C)C)[C@H]2O)[C@](C)(O)C[C@@H](C)CN(C)[C@H](C)[C@@H](O)[C@]1(C)O [Azithromycin]	1 (≈ 1.34 µM)	16 (≈ 21.4 µM)	2 (≈ 2.67 µM)	2 (≈ 2.67 µM)	32 (≈ 42.7 µM)	1 (≈ 1.34 µM)	32 (≈ 42.7 µM)	1 (≈ 1.34 µM)										
N[C@@H]1CCN(c2ccc(S(=O)(=O)N[C@@H]3CCNC3)c(S(N)(=O)=O)c2-c2nn[nH]n2)C[C@@H]1F [Example 198, 4-((3S,4R)-4-amino-3-fluoropiperidin-1-yl)-N1-((R)-pyrrolidin-3-yl)-3-(2H-tetrazol-5-yl)benzene-1,2-disulfonamide]									8.74	8.25	9.70	7.96	0.39	0.39	0.20	0.78	1.00	0.78
N[C@H]1CCN(c2ccc(S(=O)(=O)N[C@@H]3CCNC3)c(S(N)(=O)=O)c2-c2nn[nH]n2)C[C@H]1F [Example 199, 4-((3R,4S)-4-amino-3-fluoropiperidin-1-yl)-N1-((R)-pyrrolidin-3-yl)-3-(2H-tetrazol-5-yl)benzene-1,2-disulfonamide]									8.77	8.21	9.74	8.37	0.39	0.39	0.10	0.78	1.00	0.78
NCC1CCN(c2ccc(S(=O)(=O)NC[C@@H](N)CN)c(S(N)(=O)=O)c2-c2nn[nH]n2)CC1 [Example 200, (S)-4-(4-(aminomethyl)piperidin-1-yl)-N1-(2,3-diaminopropyl)-3-(2H-tetrazol-5-yl)benzene-1,2-disulfonamide]									8.51	8.34	9.29	8.08	0.78	3.13	1.56	50.00	1.00	50.00
NC[C@@H](O)CNS(=O)(=O)c1ccc(N2CCC(c3ncc[nH]3)CC2)c(-c2nn[nH]n2)c1S(N)(=O)=O [Example 201, (R)-4-(4-(1H-imidazol-2-yl)piperidin-1-yl)-N1-(3-amino-2-hydroxypropyl)-3-(2H-tetrazol-5-yl)benzene-1,2-disulfonamide]									8.74	9.11	9.59	9.19	0.39	1.56	0.78	1.56	2.00	0.78
NCCNS(=O)(=O)C1CCN(c2ccc(S(=O)(=O)N[C@@H](CN)CO)c(S(N)(=O)=O)c2-c2nn[nH]n2)CC1 [Example 202, (S)-N1-(1-amino-3-hydroxypropan-2-yl)-4-(4-(N-(2-aminoethyl)sulfamoyl)piperidin-1-yl)-3-(2H-tetrazol-5-yl)benzene-1,2-disulfonamide]									9.36	9.24	10.05	8.80	0.78	1.56	1.56	1.56	1.00	1.56
NCC=C1CCN(c2ccc(S(=O)(=O)NC[C@H](O)CN)c(S(N)(=O)=O)c2-c2nn[nH]n2)CC1 [Example 204, (R)—N1-(3-amino-2-hydroxypropyl)-4-(4-(2-aminoethylidene)piperidin-1-yl)-3-(2H-tetrazol-5-yl)benzene-1,2-disulfonamide]									9.01	8.81	9.80	8.46	0.78	1.56	1.56	0.78	1.00	0.78
NC[C@@H](O)CNS(=O)(=O)c1ccc(N2CC[C@@H](N)[C@@H](F)C2)c(-c2nn[nH]n2)c1S(N)(=O)=O [Example 207, N1-((R)-3-amino-2-hydroxypropyl)-4-((3S,4R)-4-amino-3-fluoropiperidin-1-yl)-3-(2H-tetrazol-5-yl)benzene-1,2-disulfonamide]									7.82	7.60	9.07	7.59	0.39	0.78	0.20	1.56	1.00	1.56
NCCOCC1CCN(c2ccc(S(=O)(=O)NC[C@H](O)CN)c(S(N)(=O)=O)c2-c2nn[nH]n2)CC1 [Example 208]									8.98	8.74	9.96	8.92	1.56	3.13	0.78	0.78	1.00	0.78
NCCOC1CCN(c2ccc(S(=O)(=O)NC[C@H](O)CN)c(S(N)(=O)=O)c2-c2nn[nH]n2)CC1 [Example 209, (R)—N1-(3-amino-2-hydroxypropyl)-4-(4-(2-aminoethoxy)piperidin-1-yl)-3-(2H-tetrazol-5-yl)benzene-1,2-disulfonamide]									9.02	8.77	9.92	8.48	0.78	1.56	1.56	0.78	1.00	0.78
NC[C@@H](O)CNS(=O)(=O)c1ccc(NC2CCC(N)C2)c(-c2nn[nH]n2)c1S(N)(=O)=O (stereo partly drawn) [compound 184, N1-((R)-3-amino-2-hydroxypropyl)-4-((3-aminocyclopentyl)amino)-3-(2H-tetrazol-5-yl)benzene-1,2-disulfonamide]									7.71	7.40	8.34	7.35	0.78	1.56	1.56	6.25	2.00	3.13
